# Source: ChEMBL document CHEMBL1153094, “Spectroscopic and biological studies of a novel synthetic chlorin derivative with prospects for use in PDT” (Bioorg Med Chem, 2009)
# The source made the active and inactive calls. No cut-off for these calls is given here.
# Legend:
# [1] = system: Lewis lung carcinoma cell line; assay: Antiproliferative activity against mouse LLC cells assessed as DNA […] at 2 uM in liposomal delivery system after 12 hrs pretreated with 15 J/cm2 red light-irradiation by fluorescence microscopy; format: functional, cell-based
# [2] = Cytotoxicity against mouse LLC cells assessed as survival fraction at 0.1 to 1.5 uM after 12 hrs by MTS reduction assay under dark condition; format: cell-based; details: lewis lung carcinoma
# [3] = Cytotoxicity against mouse LLC cells assessed as change in cell morphology at 2 uM after 12 hrs by fluorescence microscopy under dark condition; format: cell-based; details: lewis lung carcinoma
# [4] = system: Lewis lung carcinoma cell line; assay: Antiproliferative activity against mouse LLC cells assessed as survival fraction at 0.5 uM in liposomal delivery system after 12 hrs pretreated with 15 J/cm2 red light-irradiation by MTS reduction assay; format: functional
# [5] = system: Lewis lung carcinoma cell line; assay: Antiproliferative activity against mouse LLC cells assessed as survival fraction at 0.5 uM dissolved in DMSO after 4 hrs pretreated with 15 J/cm2 red light-irradiation by MTS reduction assay; format: functional
# [6] = system: Lewis lung carcinoma cell line; assay: Antiproliferative activity against mouse LLC cells assessed as survival fraction at 0.5 uM in liposomal delivery system after 4 hrs pretreated with 15 J/cm2 red light-irradiation by MTS reduction assay; format: functional
# [7] = system: Lewis lung carcinoma cell line; assay: Antiproliferative activity against mouse LLC cells assessed as survival fraction at 0.5 uM dissolved in DMSO after 12 hrs pretreated with 15 J/cm2 red light-irradiation by MTS reduction assay; format: functional
# [8] = Cytotoxicity against mouse LLC cells assessed as survival fraction at 0.1 to 1.5 uM after 4 hrs by MTS reduction assay under dark condition; format: cell-based; details: lewis lung carcinoma
# [9] = system: Lewis lung carcinoma cell line; assay: Antiproliferative activity against mouse LLC cells assessed as survival fraction at 0.5 uM after 4 hrs pretreated with 15 J/cm2 red light-irradiation by MTS reduction assay; format: functional
# [10] = system: Lewis lung carcinoma cell line; assay: Antiproliferative activity against mouse LLC cells assessed as nuclear damage at 2 uM in liposomal delivery system after 12 hrs pretreated with 15 J/cm2 red light-irradiation by fluorescence microscopy; format: functional, cell-based
# [11] = system: Lewis lung carcinoma cell line; assay: Antiproliferative activity against mouse LLC cells assessed as F-actin construction damage at 2 uM in liposomal delivery system after 12 hrs pretreated with 15 J/cm2 red light-irradiation by fluorescence microscopy; format: functional, cell-based
# [12] = system: Lewis lung carcinoma cell line; assay: Antiproliferative activity against mouse LLC cells assessed as survival fraction at 5 uM after 24 hrs pretreated with 15 J/cm2 red light-irradiation by MTS reduction assay; format: functional
SMILES,Activity [1],Activity [2],Activity [3],Activity [4] [%],Activity [5] [%],Activity [6] [%],Activity [7] [%],Activity [8],Activity [9] [%],Activity [10],Activity [11],Activity [12] [%]
CCCCCCCC1c2cc3[nH]c(cc4nc(cc5[nH]c(cc(n2)[C@]1(C)CC(=O)N(C)C)c(C)c5CCC(=O)O)C(CCC(=O)O)=C4C)cc3C (mixture of isomers),Active,Non-toxic,Toxic,34.8,70.6,20.3,74.4,Non-toxic,22.3,Active,Active,–
C=CC1=C(C)c2cc3[nH]c(cc4nc(cc5[nH]c(cc1n2)c(C)c5CCC(=O)[O-])C(CCC(=O)[O-])=C4C)c(C)c3C=C.[Na+].[Na+] [PROTOPORPHYRIN DISODIUM],–,–,–,–,–,–,–,–,–,–,–,60.7
